# ChEMBL document CHEMBL1158925, “New proazulene guaianolides from Thapsia villosa” (J Nat Prod, 1990)
# Active and inactive are the calls of the source. The calls are words filed in the database; no cut-off is given here.
# Experiments:
# [1] = Skin irritant activity in mouse ear at 10 ug after 24 hrs; format: ADME, tissue-based; conditions: in vivo, topical_or_ocular
# Mast cell = assay: Induction of histamine release in rat peritoneal mast cells at 10 uM; format: functional, cell-based
Structure (SMILES),Activity [1],Activity (Mast cell)
CC(=O)O[C@@]1(C)C[C@H](OC(=O)C=C(C)C)[C@@H]2[C@@H](OC(=O)[C@@]2(C)OC(C)=O)[C@@H]2C(C)=C[C@@H](O)[C@@H]21,Non-toxic,inactive
CC(=O)O[C@@H]1C=C(C)[C@H]2[C@@H]3OC(=O)[C@@](C)(OC(C)=O)[C@@H]3[C@@H](OC(=O)C=C(C)C)C[C@](C)(OC(C)=O)[C@H]21,Non-toxic,inactive
CCC(C)C(=O)O[C@H]1C[C@](C)(OC(C)=O)[C@@H]2[C@@H](C(C)=C[C@H]2OC(C)=O)[C@@H]2OC(=O)[C@@](C)(OC(C)=O)[C@@H]21 (stereo not given in full),Non-toxic,inactive
CCC(C)C(=O)O[C@H]1C[C@](C)(OC(C)=O)[C@@H]2[C@@H](C(C)=C[C@H]2O)[C@@H]2OC(=O)[C@@](C)(OC(C)=O)[C@@H]21 (stereo not given in full),Non-toxic,inactive
C/C=C(/C)C(=O)O[C@H]1C(C)=C2[C@H]([C@@H]1OC(=O)CCCCCCC)[C@@](C)(OC(C)=O)C[C@H](OC(=O)CCC)[C@@]1(O)[C@H]2OC(=O)[C@@]1(C)O [THAPSIGARGIN],Non-toxic,inactive
